Values quoted from earlier work, collected in patent US6309839A, “Screening methods for compounds that inhibit or stimulate helicase enzyme activity” (Board of Trustees of the University of Arkansas, priority 2000, dated 2001).

Molecular target: streptavidin (Streptomyces avidinii, UniProt P22629)
Conditions: no helicase present

streptavidin, sequence (P22629 25-183): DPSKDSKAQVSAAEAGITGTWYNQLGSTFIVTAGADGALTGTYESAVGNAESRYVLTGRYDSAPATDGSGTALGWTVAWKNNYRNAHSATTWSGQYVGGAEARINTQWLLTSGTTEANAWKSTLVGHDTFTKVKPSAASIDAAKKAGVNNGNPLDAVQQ

For `O=C(O)CCCC[C@@H]1SC[C@@H]2NC(=O)N[C@@H]21` [biotin], the “spontaneous dissociation rate of streptavidin from biotin” value is listed as 0.00033 min⁻¹.
